Measured values reported in PubChem BioAssay AID743418 (The Scripps Research Institute Molecular Screening Center, 2014).
Calls of active or inactive are those of the source. How the calls were made is not given here.

These compounds were tested against Sphingosine 1-phosphate receptor 2 (Homo sapiens) (UniProt O95136) (assay: S1P2 receptor agonist activity, late-stage follow-up, counter-screen for S1PR3 antagonist project, cell-based, fluorescence, dose response (AID 743418)). Conditions: S1P2-expressing cells, agonist-mode fluorescence read-out.
Chain of Sphingosine 1-phosphate receptor 2 (Homo sapiens) (O95136 whole entry, looked up): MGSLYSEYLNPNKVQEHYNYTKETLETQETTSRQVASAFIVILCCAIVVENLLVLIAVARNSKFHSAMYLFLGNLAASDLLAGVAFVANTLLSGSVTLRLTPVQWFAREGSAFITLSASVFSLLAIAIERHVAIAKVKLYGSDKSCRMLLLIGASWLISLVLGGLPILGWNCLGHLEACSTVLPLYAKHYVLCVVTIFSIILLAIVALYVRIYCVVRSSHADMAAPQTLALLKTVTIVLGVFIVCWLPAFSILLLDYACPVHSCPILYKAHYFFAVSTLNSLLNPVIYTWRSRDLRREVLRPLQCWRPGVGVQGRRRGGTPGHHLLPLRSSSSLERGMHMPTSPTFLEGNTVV

SMILES | EC50
CCc1ccc(C(NC(=O)c2cccc(Cl)c2)c2nc(-c3ccccc3)no2)cc1 (configuration not stated) | > 50 µM (inactive)
COc1ccc(C(=O)NC(c2ccccc2)c2nc(-c3ccccc3)no2)cc1 (configuration not stated) | > 50 µM (inactive)
O=C(NC(c1nc(-c2ccccc2)no1)C1CCOCC1)c1ccc(Cl)c(Cl)c1 (configuration not stated) | > 50 µM (inactive)
O=C(NC(c1ccccc1)c1nc(-c2ccccc2)no1)c1cccc(Br)c1 (configuration not stated) | > 50 µM (inactive)
O=C(NC(c1ccccc1)c1nc(-c2ccccc2)no1)c1cccc(Cl)c1 (configuration not stated) | > 50 µM (inactive)
O=C(NC(c1ccc(Cl)cc1)c1nc(-c2ccccc2)no1)c1ccc(Cl)c(Br)c1 (configuration not stated) | > 50 µM (inactive)
O=C(NC(c1cccc(Cl)c1)c1nc(-c2ccccc2)no1)c1cc(Cl)cc(Cl)c1 (configuration not stated) | > 50 µM (inactive)
O=C(NC(c1ccc(Cl)cc1)c1nc(-c2ccccn2)no1)c1cccc(Cl)c1 (configuration not stated) | > 50 µM (inactive)
O=C(NC(c1nc(-c2ccccc2)no1)C1CCCCC1)c1ccc(Cl)c(Cl)c1 (configuration not stated) | > 50 µM (inactive)
O=C(NC(c1ccc(Cl)c(Cl)c1)c1nc(-c2ccccc2)no1)c1ccc(Cl)cc1 (configuration not stated) | > 50 µM (inactive)
O=C(NC(c1ccc(Cl)c(Cl)c1)c1nc(-c2ccccc2)no1)c1ccc(Cl)c(Cl)c1 (configuration not stated) | > 50 µM (inactive)
N#Cc1ccc(C(=O)NC(c2ccc(Cl)c(Cl)c2)c2nc(-c3ccccc3)no2)cc1 (configuration not stated) | > 50 µM (inactive)

Next, values leading:

EC50 | SMILES
> 50 µM (inactive) | O=C(NC(c1ccc(Cl)c(Cl)c1)c1nc(-c2ccccc2)no1)c1cccc(Cl)c1 (configuration not stated)
> 50 µM (inactive) | O=C(NC(c1cccc(Cl)c1)c1nc(-c2ccccc2)no1)c1cccc(Cl)c1 (configuration not stated)
> 50 µM (inactive) | O=C(NC(c1ccc(Cl)cc1)c1nc(-c2cccc(Cl)c2)no1)c1cccc(Cl)c1 (configuration not stated)
> 50 µM (inactive) | O=C(NC(c1ccc(Cl)c(Cl)c1)c1nc(-c2ccccc2)no1)c1ccccc1 (configuration not stated)
> 50 µM (inactive) | O=C(NC(c1ccc(Cl)cc1)c1nc(-c2ccccc2)no1)c1cccc(Br)c1 (configuration not stated)
> 50 µM (inactive) | O=C(NC(c1ccc(Cl)cc1)c1nc(-c2ccccc2)no1)c1ccc(Cl)c(Cl)c1 (configuration not stated)
> 50 µM (inactive) | Cc1ccc(C(NC(=O)c2cccc(Cl)c2)c2nc(-c3ccccc3)no2)cc1 (configuration not stated)
> 50 µM (inactive) | Cc1ccc(C(=O)NC(c2ccccc2)c2nc(-c3ccccc3)no2)cc1 (configuration not stated)
> 50 µM (inactive) | O=C(NC(Cc1ccccc1)c1nc(-c2ccccc2)no1)c1cccc(Cl)c1 (configuration not stated)
> 50 µM (inactive) | O=C(NC(c1cccc(Cl)c1)c1nc(-c2ccccc2)no1)c1ccc(Cl)c(Cl)c1 (configuration not stated)
> 50 µM (inactive) | O=C(c1cccc(Cl)c1)N(CCO)C(c1ccc(Cl)c(Cl)c1)c1nc(-c2ccccc2)no1 (configuration not stated)
> 50 µM (inactive) | O=C(NC(c1ccccc1)c1nc(-c2ccccc2)no1)c1ccc(Cl)cc1 (configuration not stated)
> 50 µM (inactive) | O=C(NC(c1ccc(Br)cc1)c1nc(-c2ccccc2)no1)c1ccc(Cl)c(Cl)c1 (configuration not stated)
> 50 µM (inactive) | O=C(NC(c1ccc(Cl)cc1)c1nc(-c2ccccc2)no1)c1cccc(Cl)c1 (configuration not stated)
> 50 µM (inactive) | O=C(NC(c1ccccc1)c1nc(-c2ccccc2)no1)c1cccc(Cl)n1 (configuration not stated)
